Article PMC7956476, “Quinoline Functionalized Schiff Base Silver (I) Complexes: Interactions with Biomolecules and In Vitro Cytotoxicity, Antioxidant and Antimicrobial Activities” (Molecules, 2021)

How the values were obtained:
[1] = tested on: Pseudomonas aeruginosa ATCC 27853; assay: Minimum inhibitory concentration (MIC), spotting on Müeller–Hinton agar; type: cell-based; conditions: Gram − Ve; P. aeruginosa; 37 °C, 18 h
[2] = target: bovine serum albumin (BSA) (Bos taurus, UniProt P02769); assay: Albumin binding by absorption spectroscopy titration
Sequence of bovine serum albumin (BSA) (P02769 25-607): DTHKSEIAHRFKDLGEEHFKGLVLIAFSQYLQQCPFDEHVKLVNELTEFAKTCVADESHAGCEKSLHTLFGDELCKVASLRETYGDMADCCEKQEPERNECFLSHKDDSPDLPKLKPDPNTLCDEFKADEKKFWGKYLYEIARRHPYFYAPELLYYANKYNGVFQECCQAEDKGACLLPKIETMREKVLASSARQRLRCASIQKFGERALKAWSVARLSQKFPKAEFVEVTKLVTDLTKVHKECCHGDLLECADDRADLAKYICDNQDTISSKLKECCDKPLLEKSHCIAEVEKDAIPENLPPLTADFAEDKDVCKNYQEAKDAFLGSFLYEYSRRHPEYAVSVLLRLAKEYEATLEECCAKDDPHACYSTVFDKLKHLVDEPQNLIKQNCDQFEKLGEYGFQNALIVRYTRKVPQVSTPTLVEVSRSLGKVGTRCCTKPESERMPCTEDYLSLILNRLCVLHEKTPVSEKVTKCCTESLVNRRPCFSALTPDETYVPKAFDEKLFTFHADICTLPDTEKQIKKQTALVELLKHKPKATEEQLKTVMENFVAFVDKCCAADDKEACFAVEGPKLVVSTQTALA

[3] = tested on: CT-DNA-EB adduct; assay: Fluorescence competitive displacement of ethidium bromide from CT-DNA; type: binding, calf; conditions: for CT-DNA-EB-Complex Ksv (M^−1) × 10^4: Stern–Volmer quenching constant, EB displacement, 25 °C; for CT-DNA-EB-Complex Kq (M^−1S^−1) × 10^12: bimolecular quenching constant, Ksv = Kqτo, τo 10^−8 s; for CT-DNA-EB-Complex Kbin (M^−1) × 10^5: binding constant from double-logarithmic plot
How it was run: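 CT-DNA (15 µM) was pre-equilibrated 30 min with ethidium bromide (15 µM) in phosphate buffer pH 7.2, then titrated with complexes (0–20 µM) at 8-min intervals at room temperature. EB emission was recorded at 530–700 nm (excitation 525 nm, 25 °C), and quenching was analysed by Stern–Volmer to give Ksv and Kq (τo taken as 10^−8 s).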

Structure (SMILES)	Minimum inhibitory concentration, PA [1] [µg/mL]	Protein-Complex Kb (M^−1) × 10^4 [2]	CT-DNA-EB-Complex Ksv (M^−1) × 10^4 [3]	CT-DNA-EB-Complex Kq (M^−1S^−1) × 10^12 [3]	CT-DNA-EB-Complex Kbin (M^−1) × 10^5 [3]
[Ag+].[O-][Cl+3]([O-])([O-])[O-].c1ccc2nc(-c3nc4ccccc4s3)ccc2c1.c1ccc2nc(-c3nc4ccccc4s3)ccc2c1 [Complex Q7, [Ag(L2)2]ClO4]	0.2	9.38 (M^−1) × 10^4	3.96 (M^−1) × 10^4	3.96 (M^−1S^−1) × 10^12	1.29 (M^−1) × 10^5
Cc1ccc(N=Cc2ccc3ccccc3n2)cc1.Cc1ccc(N=Cc2ccc3ccccc3n2)cc1.[Ag+].[O-][Cl+3]([O-])([O-])[O-] [Complex Q9, [Ag(L4)2]ClO4]		5.43 (M^−1) × 10^4	2.49 (M^−1) × 10^4	2.49 (M^−1S^−1) × 10^12	6.53 (M^−1) × 10^5
